Test [1] deals with Escherichia coli ATCC 25922. The test can be described thus: Evaluation test for disinfecting effect, broth dilution method CLSI(M7-A7)2006. Type of test: cell-based. Particulars: 37°C, 18 hours. The text has this:
(§1) The following test compounds were examined for the disinfecting activities against Pseudomonas aeruginosa, E.. Coli and staphylococcus aureus, according to a broth dilution method of "CLSI(M7-A7)2006" (Clinical and Laboratory Standards Institute, M7-A7, Methods for Dilution Antimicrobial Susceptibility Tests for Bacteria That Grow Aerobically; Approved Standard-Seventh Edition, 2006),
(§2) • Pseudomonas aeruginosa PAO1 • Pseudomonas aeruginosa ATCC 27853 • Escherichia coli ATCC 25922 • Staphylococcus aureus ATCC 29213 • Staphylococcus aureus Methicillin resistant (MRSA) ATCC 43300
(§3) Each of above-mentioned bacteria was inoculated in a TSB culture medium (Bacto TSB Broth, product of BD) for overnight cultivation at 37°C. The culture solution was applied to a TSB agar plate for about a 20-hour cultivation to form colonies. Three to five colonies were taken from the agar plate, and an average colony of them was inoculated in a 4mL TSB culture medium.. The colony was cultivated at 35°C until the number of microorganisms became 1 × 10^8 to 2 x 10^8 CFU/mL. The number of microorganisms with time was found by measuring changes in absorbency at 590nm of culture solution with time. When the turbidity became equivalent to 0.5 McFarland standard, it was determined that the number of microorganisms reached the target level = 1 × 10^8 to 2 × 10^8 CFU/mL.
(§4) The bacillus culture solution thus obtained was diluted 10-fold within 15 minutes, and a 5µL portion was inoculated in each well of an evaluation 96-well microplate. This 96-well microplate was a sterilized 96-well microplate with U-shaped bottoms (Falcon 35-3918: product of BD), and each well was filled with a 100µL portion of MH culture medium (BBL MH Broth: product of BD). Within 15 minutes after inoculation of the bacillus culture solutions, the test compounds were supplied to the well in a manner of 2-fold graded dilution. The cultivation was then carried out at 37°C for 18 hours.
(§5) The MIC was determined as follows. "S (susceptible)" indicates a concentration which caused 80% or more reduction in the diameter of the aggregation deposited in the bottom of the well, compared to when the test liquid is not used. "R (Resistant)" indicates a concentration that caused less than 80% reduction in diameter. The reduction was measured visually.. "I(Intermediate)" indicates a concentration that cannot be measured visually

For test [2], the system named is Pseudomonas aeruginosa ATCC 27853. The description is as above. It is filed as cell-based. As to conditions: 37°C, 18 hours.
Description: as §1, §2, §3, §4, §5

Test [3] concerns Pseudomonas aeruginosa PAO1. The description is as above. Type of test: cell-based. As to conditions: 37°C, 18 hours.
Description: as §1, §2, §3, §4, §5

In test [4] the test system is Staphylococcus aureus ATCC 29213. Described as above. Type of test: cell-based. As to conditions: 37°C, 18 hours.
Description: as §1, §2, §3, §4, §5

The subject of test [5] is Staphylococcus aureus Methicillin resistant (MRSA) ATCC 43300. The test is described as above. It is filed as cell-based. As to conditions: 37°C, 18 hours.
Description: as §1, §2, §3, §4, §5

Test [6] concerns Staphylococcus aureus ATCC 29213. Particulars: Publicly-known data, CLSI(M100-S16)2006 liquid dilution method; cited from earlier work.
The subject of test [7] is Pseudomonas aeruginosa ATCC 27853. Particulars: Publicly-known data, CLSI(M100-S16)2006 liquid dilution method; cited from earlier work.
Test [8] deals with Escherichia coli ATCC 25922. As to conditions: Publicly-known data, CLSI(M100-S16)2006 liquid dilution method; cited from earlier work.
Test [9] concerns Pseudomonas aeruginosa (gfp expression PAO1-strain). The experiment in a line: Evaluation test for biofilm formation inhibition effect against Pseudomonas aeruginosa (flow cell system, fluorescence confocal microscope). Type of test: cell-based. As to conditions: test liquid 100µM; observed up to 84 hours; compared with control test liquid (huge, thick biofilm). The procedure:
With the flow cell system shown in FIG. 1, an inhibitory effect against biofilm formation by Pseudomonas aeruginosa was evaluated for each of the amide compounds produced in Production Examples 1, 3, 5, 6 and 7 (Compounds 1a-1, 1b-1, 1c-1, 1c-2, 1d-1), and for each of Comparative Compounds (Comparative Example) 1 to 3 denoted by the following formulas. [drawing 20] [drawing 21] [drawing 22]
A culture medium bottle (1), a peristaltic pump (2), a glass cell (4) and a waste fluid bottle (5) are connected via a silicon tube (6) so that a culture medium (9) is supplied to the glass cell (4) from the culture medium bottle (1) using the peristaltic pump (2). The system includes an air removal section (3) between the peristaltic pump (2) and a turncock (7a), for removing the entrained air. All instruments in the flow cell system are sterilized using gamma-rays or an autoclave.
As specifically described later, the inhibitory effect against biofilm formation of each of the amide compounds is examined in the following manner.. Bacteria are cultured in a glass cell (4) to grow a biofilm on the inner wall of the cell, and a test liquid containing one of the amide compounds is applied to the biofilm. Then the state of the biofilm is observed to evaluate the inhibitory effect against biofilm formation of the compound using a fluorescence confocal microscope (Leica TCS SP2: product of Leica). […]

In test [10] the test system is Porphyromonas gingivalis 381-strain (clinical strain). The test can be described thus: Evaluation test for biofilm formation inhibition effect against periodontitis pathogenic bacteria (flow cell system, HA disks, turbidity). It is filed as cell-based. As to conditions: Porphyromonas gingivalis, 336 h; 100µM; 14 days; relative to control test liquid (Mean Comparison OD Value); read-out: Biofilm Formation Inhibition Rate(%). On the procedure:
As with Experiment Example 1, using the flow cell system of FIG. 1, an inhibitory effect against biofilm formation by periodontitis pathogenic bacteria was evaluated for each of the amide compounds produced in Production Examples 1, 3, 5, and 6 (Compounds 1a-1, 1b-1, 1c-1, 1c-2).
Periodontitis pathogenic bacteria Porphyromonas gingivalis 381-strain (clinical strain) was used..
A GAM culture medium containing hemin 5µg/L and menadione 1µg/L was used.
The 381-strain was inoculated in the GAM culture medium, and cultivated until stationary phase (OD550=1.8). Then the culture medium was diluted 20-fold by a fresh GAM culture medium containing the above-mentioned substances.
The test liquid was prepared by dissolving 100µM of each of the Compounds 1a-1, 1b-1, 1c-1, or 1c-2 according to Production Examples 1, 3, 5 and 6 and 100µM of Comparative Compounds 1 and 2 as comparative examples in dimethyl sulfoxide (DMSO), and supplying the resulting DMSO solutions to the above-mentioned bacterial suspensions so that the concentration of each compound becomes 0.1%(v/v).
A DMSO not containing the compound was used as a control test liquid.
The glass cell (4) of the flow cell system (see FIG. 1) was replaced with a stainless cell (3 x 7 x 120mm), and 10 hydroxyapatite (HA) disks (6mm in diameter, 1mm in thickness) were placed in the cell. The HA disks had been subjected to salivary treatment overnight. Each of the test liquids and control test liquids was circulated in the system at a flow rate of 8mL/min for 14 days, Note that the test liquids and the control test liquids were replaced with fresh liquids every two days.
After the cultivation, the HA disks were dipped in 300µL of sterile distilled water, and treated by supersonic wave for 30 minutes at 4°C, The biofilms formed in the HA disks were peeled off and suspended in distilled water. Then, 100µL of the suspension liquid was measured for the turbidity with an absorptiometer (C07500 colorimeter, product of Funakoshi) (measurement wavelength = 550 nm).
A mean OD was found based on the resulting OD values, excluding the minimum and maximum values, Also, a mean value of the turbidities for the Control Test Liquids was found in the same manner as the control mean OD value. A biofilm formation inhibition rate (Inhibition Rate) was found by the following formula. Biofilm Formation Inhibition Rate (%) = […] [formula]

Where [11] appears, read: ATCC25922, I (Intermediate): concentration that cannot be measured visually, read-out: MIC (µg/mL) I.
The mark [12] stands for this setting: ATCC25922, R (Resistant): concentration that caused less than 80% reduction in diameter of the aggregation, read-out: MIC (µg/mL) R.
[13] abbreviates: ATCC25922, S (susceptible): concentration which caused 80% or more reduction in diameter of the aggregation, read-out: MIC (µg/mL) S.
The mark [14] stands for this setting: ATCC27853, I (Intermediate): concentration that cannot be measured visually, read-out: MIC (µg/mL) I.
[15] abbreviates: ATCC27853, R (Resistant): concentration that caused less than 80% reduction in diameter of the aggregation, read-out: MIC (µg/mL) R.
The mark [16] stands for this setting: ATCC27853, S (susceptible): concentration which caused 80% or more reduction in diameter of the aggregation, read-out: MIC (µg/mL) S.
Setting [17] is: PAO1, I (Intermediate): concentration that cannot be measured visually, read-out: MIC (µg/mL) I.
The mark [18] stands for this setting: PAO1, R (Resistant): concentration that caused less than 80% reduction in diameter of the aggregation, read-out: MIC (µg/mL) R.
Where [19] appears, read: PAO1, S (susceptible): concentration which caused 80% or more reduction in diameter of the aggregation, read-out: MIC (µg/mL) S.
Setting [20] is: ATCC29213, I (Intermediate): concentration that cannot be measured visually, read-out: MIC (µg/mL) I.
Setting [21] is: ATCC29213, R (Resistant): concentration that caused less than 80% reduction in diameter of the aggregation, read-out: MIC (µg/mL) R.
Setting [22] is: ATCC29213, S (susceptible): concentration which caused 80% or more reduction in diameter of the aggregation, read-out: MIC (µg/mL) S.
[23] abbreviates: R (Resistant): concentration that caused less than 80% reduction in diameter of the aggregation, read-out: MIC (µg/mL) R.

Converted amounts (≈) assume the structure as drawn. Like-named read-outs stand apart in the source and are kept apart here.

With `CC[C@H]1OC(=O)[C@H](C)[C@@H](O[C@H]2C[C@@](C)(OC)[C@@H](O)[C@H](C)O2)[C@H](C)[C@@H](O[C@@H]2O[C@H](C)C[C@H](N(C)C)[C@H]2O)[C@](C)(O)C[C@@H](C)CN(C)[C@H](C)[C@@H](O)[C@]1(C)O` [AZM, Azithromycin], the MIC in test [1] (setting [11]) is 4 µg/mL (≈ 5.34 µM); in [1] (setting [12]), at most 2 µg/mL; in test [1] (setting [13]), at least 8 µg/mL; in test [2] (setting [14]) it was 64 µg/mL (≈ 85.4 µM); in test [2] (setting [15]), at most 32 µg/mL; in test [2] (setting [16]), at least 128 µg/mL. The MIC in test [3] (setting [17]) was 64 µg/mL (≈ 85.4 µM); in test [3] (setting [18]) it was at most 32 µg/mL; in test [3] (setting [19]), at least 128 µg/mL; in [4] (setting [20]) it was 1 µg/mL (≈ 1.34 µM); in test [4] (setting [21]), at most 0.5 µg/mL; in [4] (setting [22]), at least 2 µg/mL. Also, the MIC in test [5] (setting [23]) was at most 1020 µg/mL. Moreover, the “MIC (µg/mL) from M100-S16” value in [6] is 0.5 to 2 µg/mL.
With `NC[C@H]1O[C@H](O[C@H]2[C@H](O)[C@@H](O[C@H]3O[C@H](CO)[C@@H](O)[C@H](N)[C@H]3O)[C@H](N)C[C@@H]2N)[C@H](N)C[C@@H]1O` [TOB, Tobramycin], the MIC in [1] (setting [11]) was 0.5 µg/mL (≈ 1.07 µM); in test [1] (setting [12]), at most 0.25 µg/mL; in test [1] (setting [13]), at least 1 µg/mL; in test [2] (setting [14]) it was 0.5 µg/mL (≈ 1.07 µM); in [2] (setting [15]), at most 0.25 µg/mL; in test [2] (setting [16]) it was at least 1 µg/mL. Moreover, the MIC in [3] (setting [17]) is 0.5 µg/mL (≈ 1.07 µM); in [3] (setting [18]), at most 0.25 µg/mL; in test [3] (setting [19]), over 1 µg/mL; in test [4] (setting [20]), 0.25 µg/mL (≈ 0.535 µM); in [4] (setting [21]) it was at most 0.125 µg/mL; in test [4] (setting [22]) it was at least 0.5 µg/mL. The MIC in [5] (I (Intermediate): concentration that cannot be measured visually, read-out: MIC (µg/mL) I) was 128 µg/mL (≈ 274 µM); in [5] (setting [23]), at most 64 µg/mL; in test [5] (S (susceptible): concentration which caused 80% or more reduction in diameter of the aggregation, read-out: MIC (µg/mL) S), at least 256 µg/mL. The entries for the “MIC (µg/mL) from M100-S16” value in [7], in test [8] and in test [6] were 0.25 to 1 µg/mL, 0.25 to 1 µg/mL and 0.12 to 1 µg/mL, respectively.
Take `CCCCCCCCCC(=O)CC(=O)Nc1ccccc1O` [Comparative Compound 1]: the “state of biofilm formation” value in test [9] is “the huge, thick biofilm was observed as in the control test”. For the same compound, the inhibition (as a rule, the relative decrease from the control value, in per cent) at 100 µM in test [10] is -36%.
`CCCCCCCCCCCC(=O)NN1CCCCC1` [Compound 1d-1, N-(piperidin-1-yl) dodecanoyl amide]: the “state of biofilm formation” value in [9] is “such biofilm formation was not observed”.

(Values after patent EP2077260B1, “AMIDE COMPOUND OR SALT THEREOF, AND BIOFILM FORMATION INHIBITOR, BIOFILM REMOVER AND BACTERICIDE EACH USING THE AMIDE COMPOUND OR SALT THEREOF” (The University of Tokyo, priority 2006, dated 2008).)
